What was measured:
[1] = test system: PI3K-mutated BT474 breast cancer xenograft tumors; assay: In vivo xenograft mouse model, GPX4-iKO BT474; conditions: nu/nu mice, CCI-779 2 mg/kg daily i.p., Dox diet induces GPX4 knockout
Method: FIG. 6 A-F. Combination of mTORC1 inhibition with ferroptosis induction leads to tumor regression in vivo. (A) CRISPR/Cas9-mediated, Dox-induced GPX4 knockout (GPX4-iKO) in BT474 cells, monitored by western blot. (B) Images of resected tumors from mice xenografted with GPX4-iKO BT474 cells. Groups of mice were treated with CCI-779 and/or Dox as indicated (n=6 per group). See Methods for detail. (C) Representative haematoxylin and eosin (H&E) and immunostaining images of GPX4, Ki67, PTGS2 and pS235/236 S6, all counterstained with haematoxylin (blue), are shown from sections of xenografted tumors. Scale bar, 50 μm. (D) Growth curves of BT474 tumors of each group. […]
FIG. 13 A-E. Combination of mTORC1 inhibition with ferroptosis induction leads to tumor regression. […] (B) BT474 tumor volume was measured every day for each mouse. […] (E) PC-3 tumor volume was measured every day for each mouse. […]
17-β-estradiol 60-day release pellets were implanted subcutaneously into the left flank 7 days before tumor inoculation. […] Tumor growth was monitored regularly via external caliper measurements. […] The maximum width (X) and length (Y) of the tumor were measured every day and the volume (V) was calculated using the formula: V=(X2Y)/2. Tumor growth was monitored over time. For all experiments, mice were sacrificed at a pre-determined endpoint. […]

NRF2 = assay: Western blot of NRF2; format: cell-based, human; conditions: BT474 cells, 8 h; RSL3 0.5 μM; Torin 1 μM
Method: FIG. 3 A-E. NRF2 is not the major mediator of the ferroptosis-suppressing activity of mTORC1. (A) BT474 cells were treated as indicated for 8 h. RSL3, 0.5 μM; Torin, 1 μM. Western blot was performed to measure […], total S6K and NRF2. (B) NRF2 was depleted by CRISPR/Cas9 technology in HT1080 cells. NRF2 level was measured by western blot. (C) Control or NRF2-depleted cells were treated as indicated. Erastin, 0.5 μM; RSL3, 25 nM. (D) HepG2 cells with or without NRF2 depletion were treated with cysteine starvation with or without CCI-779 (0.5 μM) as indicated. Sytox Green were added after 48 h for cell death staining (scale bar, 100 m). (E) PC-3 cells with or without NRF2 depletion were treated with cysteine starvation with or without CCI-779 (0.5 μM) as indicated. Sytox Green were added after 48 h for cell death staining (scale bar, 100 m).
Cell lysates were resolved on SDS-PAGE gels and transferred to a nitrocellulose membranes. The membranes were incubated in 5% skim milk for 1 hour at room temperature and then incubated with primary antibodies diluted in blocking buffer at 4° C. overnight. […]

| SMILES | tumor growth [1] | RSL3-induced NRF2 accumulation (NRF2) |
| --- | --- | --- |
| CO[C@H]1C[C@@H]2CC[C@@H](C)[C@@](O)(O2)C(=O)C(=O)N2CCCC[C@H]2C(=O)O[C@H]([C@H](C)C[C@@H]2CC[C@@H](OC(=O)C(C)(CO)CO)[C@H](OC)C2)CC(=O)[C@H](C)/C=C(\C)[C@@H](O)[C@@H](OC)C(=O)[C@H](C)C[C@H](C)/C=C/C=C/C=C/1C [CCI-779, Temsirolimus] | decelerated tumor growth |  |
| CCC(=O)N1CCN(c2ccc(-n3c(=O)ccc4cnc5ccc(-c6cnc7ccccc7c6)cc5c43)cc2C(F)(F)F)CC1 [Torin] |  | ablated |
